Reference: the supplement of paper PMC10307832

Compound: CNC(=O)c1cc(Oc2ccc(NC(=O)Nc3ccc(Cl)c(C(F)(F)F)c3)cc2)ccn1 [Sorafenib]
Assay: relative viability (nuclei count vs DMSO), 5 days (fraction); higher = more cells survive
Summary of the method: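 On vehicle-anchored 1536-well plates, lung cancer cell lines held overnight at 37 °C were pinned with five library-drug doses (not always all listed) spaced by √10. With no medium change over 5 days, they were then fixed, permeabilised and Hoechst-stained in one step and imaged at 4×. MetaXpress counted nuclei, and viability is the median across plates of treated-well over vehicle-well nuclei. Acceptance needed control CV below 25% and at least one doubling.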

| Cell Line | relative viability (0.08 µM) | relative viability (0.253 µM) | relative viability (2.53 µM) | relative viability (8 µM) |
| --- | --- | --- | --- | --- |
| HCC-827 | 1.06 | 0.954 | 1.02 | 0.956 |
| HCC-78 | 1.13 | 0.953 | 1.05 | 1.05 |
| HCC-366 | 1 | 1.02 | 1 | 0.999 |
| HARA | 1.17 | 0.79 | 1.07 | 0.767 |
| CAL-12T | 1.01 | 0.882 | 0.985 | 0.644 |
| NCI-H596 | 0.993 | 1.03 | 1.18 | 0.969 |
| HCC-44 | 0.989 | 0.886 | 0.941 | 0.901 |
| NCI-H1650 | 1.17 | 0.909 | 1.31 | 0.534 |
| NCI-H1651 | 1.07 | 0.958 | 0.985 |  |
| NCI-H1793 | 1.06 | 0.944 | 1.15 | 0.596 |
| PC-14 | 1.07 | 0.928 | 1.05 |  |
| COR-L23 | 1.04 | 0.926 | 0.957 | 0.781 |
| NCI-H2342 |  | 0.728 |  | 0.656 |
| NCI-H650 | 1.08 | 0.82 | 0.83 | 0.78 |
| NCI-H2023 | 1.15 | 0.89 | 1.07 | 0.425 |
| NCI-H2087 | 1.12 |  | 0.927 | 0.4 |
| NCI-H441 | 1.05 | 0.783 | 0.908 | 0.584 |
| NCI-H520 | 0.93 | 0.823 |  | 0.75 |
| COR-L 105 | 1.11 | 0.867 | 1.15 | 0.691 |
| SW 1573 | 1.03 | 0.98 | 0.877 | 0.456 |
| PC-3 [JPC-3] | 1.15 | 0.973 | 1.09 |  |
| HCC-15 | 1.05 | 0.912 | 1.05 | 0.69 |
| UMC-11 | 1.03 | 0.907 | 0.917 | 0.648 |
| NCI-H1734 |  | 0.97 | 0.909 | 0.618 |
| H3255 | 1.07 | 0.89 | 0.99 | 0.755 |

| Cell Line | relative viability (0.08 µM) | relative viability (0.253 µM) | relative viability (2.53 µM) | relative viability (8 µM) |
| --- | --- | --- | --- | --- |
| SK-MES-1 | 1.04 | 0.936 | 0.997 | 0.752 |
| NCI-H2347 | 1.11 | 0.964 | 1.01 | 0.944 |
| A-427 | 0.999 | 0.902 | 0.94 | 0.752 |
| NCI-H1792 | 0.877 | 0.843 | 0.892 | 0.773 |
| NCI-H522 | 1.04 | 0.877 | 0.865 | 0.648 |
| NCI-H1355 | 1.02 | 0.921 | 0.958 | 0.788 |
| NCI-H838 | 1.04 | 0.996 | 1.17 | 0.994 |
| NCI-H358 | 1.04 | 1.05 | 1.01 | 0.688 |
| NCI-H1395 | 1.1 | 0.76 | 1.02 | 0.775 |
| EPLC-272H | 1.19 | 0.842 | 1.09 | 0.774 |
| NCI-H1975 | 1.05 | 0.889 | 1.1 | 1.03 |
| LK-2 | 1.09 | 0.766 | 0.848 | 0.494 |
| NCI-H2228 | 1.17 | 0.736 | 0.941 | 0.714 |
| RERF-LC-KJ | 1.01 | 0.903 | 0.976 | 0.941 |
| LXF-289 | 1.06 | 0.97 | 1.03 | 0.958 |
| NCI-H2405 | 1.12 | 0.89 | 1.06 | 0.74 |
| NCI-H460 | 1.01 | 0.918 | 1 | 0.654 |
| NCI-H1703 | 0.859 | 0.46 | 0.271 | 0.249 |
| NCI-H1915 | 0.956 | 0.894 | 0.934 | 0.945 |
| LCLC-103H | 0.975 | 0.946 | 1.13 | 1.03 |
| NCI-H1666 | 0.992 | 0.913 | 0.985 | 0.844 |
| LU99A | 0.997 | 0.94 | 0.777 | 0.696 |
| NCI-H2009 | 0.951 | 0.786 | 0.924 | 0.731 |
| NCI-H1755 | 1.04 |  | 0.973 | 0.936 |
| LOU-NH91 | 1.1 | 0.967 | 1.17 |  |

| Cell Line | relative viability (0.08 µM) | relative viability (0.253 µM) | relative viability (2.53 µM) | relative viability (8 µM) |
| --- | --- | --- | --- | --- |
| HOP-62 | 0.986 | 0.858 | 0.764 | 0.589 |
| LC-2-ad | 1.03 | 0.834 | 0.939 | 0.762 |
| NCI-H727 | 1.15 | 0.768 | 0.88 | 0.691 |
| NCI-H647 | 1.05 | 0.763 | 0.853 | 0.492 |
| NCI-H23 | 1 | 0.875 | 0.974 | 0.704 |
| NCI-H2170 | 1 | 0.875 | 0.943 | 0.782 |
| ChaGo-K-1 |  | 0.915 | 1 | 0.867 |
| NCI-H1437 | 0.999 | 0.872 | 0.945 | 0.583 |
| IA-LM |  | 0.646 | 0.563 | 0.514 |
| SK-LU-1 | 1.15 | 0.876 | 0.92 | 0.655 |
| NCI-H1944 | 0.923 | 0.927 | 0.932 | 0.734 |
| NCI-H1993 | 1.09 | 0.968 | 1.19 | 0.812 |
| ABC-1 | 1.07 | 0.808 |  | 0.584 |
| NCI-H2126 | 1.02 | 0.997 | 1.07 | 1 |
| BEN | 1.08 | 0.826 | 1.15 | 0.823 |
| NCI-H3122 | 0.994 | 1.01 | 0.977 | 0.881 |
| EMC-BAC-2 | 1.05 | 0.786 | 0.938 | 0.873 |
| 201T | 0.975 | 0.943 | 1.07 | 0.918 |
| NCI-H2085 | 1.06 | 0.972 | 1.04 | 0.895 |
| NCI-H661 |  | 1.02 | 0.97 | 0.713 |
| EKVX | 1.05 | 0.954 | 0.963 | 0.952 |
| LCLC-97TM1 | 1.16 | 0.778 |  | 0.703 |
| NCI-H322M | 1.14 | 0.918 | 1.3 | 1.27 |
